In patent US8470836B2, “Dipeptidyl peptidase-IV inhibiting compounds, methods of preparing the same, and pharmaceutical compositions containing the same as active agent” (LG Life Sciences, Ltd., priority 2007, dated 2013):
Structures can show the parent of a compound that is named as a salt.

What was measured:
Format in all cases: biochemical
[1] = target: DPP-II (Homo sapiens (Human), UniProt Q9UHL4); assay: Measurement of DPP-II inhibitory activity (Gly-Pro-AFC); conditions: 100 μM Gly-Pro-AFC, 50 mM acetic acid pH 4.5, room temperature
[2] = target: DPP-VIII (Homo sapiens (Human), UniProt Q6V1X1); assay: Measurement of DPP-VIII inhibitory activity (Gly-Pro-AFC); conditions: 100 μM Gly-Pro-AFC, 50 mM HEPES pH 7.5, room temperature
[3] = target: DPP-IX (Homo sapiens (Human), UniProt Q86TI2); assay: Measurement of DPP-IX inhibitory activity (Gly-Pro-AFC); conditions: 100 μM Gly-Pro-AFC, 50 mM HEPES pH 7.5, room temperature
[4] = target: Dipeptidyl peptidase-IV (DPP-IV) (Homo sapiens (Human), UniProt P27487); assay: Assay of DPP-IV inhibitory activity (fluorescent substrate Ac-Gly-Pro-AFC); conditions: DPP-IV 7.1 nM, 100 μM Ac-Gly-Pro-AFC, 25° C., 50 mM HEPES pH 7.4, 1 hour
Sequence of Dipeptidyl peptidase-IV (DPP-IV) (P27487 whole entry): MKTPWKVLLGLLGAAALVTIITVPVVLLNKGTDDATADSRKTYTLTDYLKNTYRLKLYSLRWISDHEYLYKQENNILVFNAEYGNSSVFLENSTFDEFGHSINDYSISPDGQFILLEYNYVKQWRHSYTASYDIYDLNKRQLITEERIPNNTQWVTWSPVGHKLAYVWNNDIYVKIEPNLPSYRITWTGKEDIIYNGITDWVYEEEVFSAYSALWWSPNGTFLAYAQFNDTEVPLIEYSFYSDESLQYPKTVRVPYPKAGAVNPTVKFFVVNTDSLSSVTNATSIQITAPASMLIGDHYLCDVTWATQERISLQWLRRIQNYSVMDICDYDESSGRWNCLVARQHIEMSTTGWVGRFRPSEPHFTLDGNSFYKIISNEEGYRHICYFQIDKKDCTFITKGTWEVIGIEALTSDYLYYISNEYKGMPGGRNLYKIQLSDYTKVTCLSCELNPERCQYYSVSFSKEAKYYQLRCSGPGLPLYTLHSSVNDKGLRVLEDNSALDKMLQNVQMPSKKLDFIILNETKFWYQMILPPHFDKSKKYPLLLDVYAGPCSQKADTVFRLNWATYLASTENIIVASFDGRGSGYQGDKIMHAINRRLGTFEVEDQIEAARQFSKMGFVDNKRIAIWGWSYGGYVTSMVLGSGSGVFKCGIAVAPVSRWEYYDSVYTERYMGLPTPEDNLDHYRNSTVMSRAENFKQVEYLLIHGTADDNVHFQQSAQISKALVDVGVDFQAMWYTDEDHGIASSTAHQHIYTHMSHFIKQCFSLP

Sequence of DPP-VIII (Q6V1X1 whole entry, species assumed): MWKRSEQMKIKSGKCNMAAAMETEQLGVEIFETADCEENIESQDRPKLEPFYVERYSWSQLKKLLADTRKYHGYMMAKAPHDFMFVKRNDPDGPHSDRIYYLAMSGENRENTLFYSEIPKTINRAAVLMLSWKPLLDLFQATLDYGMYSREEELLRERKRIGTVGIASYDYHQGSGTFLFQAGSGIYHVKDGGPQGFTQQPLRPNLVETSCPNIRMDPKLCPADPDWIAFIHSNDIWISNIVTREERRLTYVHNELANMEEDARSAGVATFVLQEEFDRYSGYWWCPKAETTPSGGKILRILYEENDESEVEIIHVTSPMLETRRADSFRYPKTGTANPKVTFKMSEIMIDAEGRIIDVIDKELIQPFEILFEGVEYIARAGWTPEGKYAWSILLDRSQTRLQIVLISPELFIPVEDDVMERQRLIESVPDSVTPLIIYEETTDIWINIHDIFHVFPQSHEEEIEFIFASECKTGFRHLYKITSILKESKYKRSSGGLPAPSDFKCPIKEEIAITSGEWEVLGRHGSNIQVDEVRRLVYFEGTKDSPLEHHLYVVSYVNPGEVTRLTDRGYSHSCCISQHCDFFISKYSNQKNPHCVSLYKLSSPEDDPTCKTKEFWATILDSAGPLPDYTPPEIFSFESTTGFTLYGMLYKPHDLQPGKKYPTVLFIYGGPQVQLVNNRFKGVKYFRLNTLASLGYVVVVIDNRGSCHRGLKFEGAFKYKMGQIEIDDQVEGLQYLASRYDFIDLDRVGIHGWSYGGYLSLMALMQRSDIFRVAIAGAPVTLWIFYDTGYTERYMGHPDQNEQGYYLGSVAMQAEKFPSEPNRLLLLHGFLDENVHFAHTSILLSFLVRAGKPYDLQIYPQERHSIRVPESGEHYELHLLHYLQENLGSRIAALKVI
Sequence of DPP-IX (Q86TI2 whole entry, species assumed): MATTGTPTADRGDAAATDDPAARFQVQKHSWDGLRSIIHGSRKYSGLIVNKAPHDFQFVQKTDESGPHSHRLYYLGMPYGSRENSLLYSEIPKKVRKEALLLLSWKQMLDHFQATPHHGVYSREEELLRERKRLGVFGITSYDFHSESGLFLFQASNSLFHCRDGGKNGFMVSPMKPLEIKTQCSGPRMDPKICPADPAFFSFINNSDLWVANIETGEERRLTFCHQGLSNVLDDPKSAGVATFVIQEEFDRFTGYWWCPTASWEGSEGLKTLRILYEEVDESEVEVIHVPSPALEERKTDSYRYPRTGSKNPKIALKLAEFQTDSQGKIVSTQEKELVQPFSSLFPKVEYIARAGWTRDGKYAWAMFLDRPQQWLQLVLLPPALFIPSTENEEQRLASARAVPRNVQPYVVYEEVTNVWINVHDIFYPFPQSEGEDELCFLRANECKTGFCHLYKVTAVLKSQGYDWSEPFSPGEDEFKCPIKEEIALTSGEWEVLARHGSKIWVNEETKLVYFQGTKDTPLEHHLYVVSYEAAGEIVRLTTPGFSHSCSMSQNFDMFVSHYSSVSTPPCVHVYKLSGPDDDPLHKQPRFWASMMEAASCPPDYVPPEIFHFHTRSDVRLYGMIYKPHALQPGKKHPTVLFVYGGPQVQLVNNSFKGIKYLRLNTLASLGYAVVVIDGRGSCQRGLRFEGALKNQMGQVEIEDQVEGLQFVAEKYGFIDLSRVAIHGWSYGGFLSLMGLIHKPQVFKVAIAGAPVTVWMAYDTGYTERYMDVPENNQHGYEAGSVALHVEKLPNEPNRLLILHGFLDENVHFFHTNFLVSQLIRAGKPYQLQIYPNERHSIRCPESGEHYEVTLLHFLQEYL

SMILES | IC50 [1] [µM] | IC50 [2] [µM] | IC50 [3] [µM] | IC50 [4] [µM]
COCCc1nc2c(c(C(F)(F)F)n1)CCN(C(=O)C[C@H](N)CN1C(=O)CCC(F)(F)[C@@H]1O)C2 [Example 10, 1-{(S)-2-amino-4-[2-(2-methoxy-ethyl)-4-trifluoromethyl-5,8-dihydro-6H-pyrido[3,4-d]pyrimidin-7-yl]-4-oxo-butyl}-5,5-difluoro-6-hydroxy-piperidin-2-one hydrochloride] | > 400 | > 400 | > 210 | –
CC1CC(=O)N(C[C@@H](N)CC(=O)N2CCc3c(nc(C(C)(C)C)nc3C(F)(F)F)C2)C1=O (stereo partly drawn) [Example 22, 1-[(S)-2-amino-4-(2-t-butyl-4-trifluoromethyl-5,8-dihydro-6H-pyrido[3,4-d]pyrimidin-7-yl)-4-oxo-butyl]-3-methyl-pyrrolidine-2,6-dione hydrochloride] | – | – | – | > 2.5
N[C@@H](CC(=O)N1CCc2c(nc(C(F)(F)F)nc2C(F)(F)F)C1)CN1C(=O)CCC(F)(F)[C@@H]1O [Example 2, 1-[(2S)-amino-4-(2,4-bis-trifluoromethyl-5,8-dihydro-6H-pyrido[3,4-d]pyrimidin-7-yl)-4-oxo-butyl]-5,5-difluoro-(6S)-hydroxy-piperidin-2-one hydrochloride] | – | – | > 400 | –
N[C@@H](CC(=O)N1CCc2c(nc(C3CCC3)nc2C(F)(F)F)C1)CN1C(=O)CCC(F)(F)C1O (stereo partly drawn) [Example 5, 1-[(S)-2-amino-4-(2-cyclobutyl-4-trifluoromethyl-5,8-dihydro-6H-pyrido[3,4-d]pyrimidin-7-yl)-4-oxo-butyl]-5,5-difluoro-6-hydroxy-piperidin-2-one hydrochloride] | > 161 | > 400 | > 400 | –
N[C@@H](CC(=O)N1CCc2c(nc(-c3ccncc3)nc2C(F)(F)F)C1)CN1C(=O)CCC(F)(F)[C@@H]1O [Example 6, 1-[(S)-2-amino-4-oxo-4-(2-pyridin-4-yl-4-trifluoromethyl-5,8-dihydro-6H-pyrido[3,4-d]pyrimidin-7-yl)-butyl]-5,5-difluoro-6-hydroxy-piperidin-2-one] | > 70 | > 127 | > 100 | –
N[C@@H](CC(=O)N1CCc2c(nc(-c3ccco3)nc2C(F)(F)F)C1)CN1C(=O)CCC(F)(F)[C@@H]1O [Example 8, 1-[(S)-2-amino-4-(2-furan-2-yl-4-trifluoromethyl-5,8-dihydro-6H-pyrido[3,4-d]pyrimidin-7-yl)-butyl]-4-oxo-butyl]-5,5-difluoro-6-hydroxy-piperidin-2-one hydrochloride] | > 80 | > 400 | > 130 | –
